Data: US20230142739A1, “PROTEIN-PROTEIN INTERACTION STABILIZERS” (The Regents of the University of California, priority 2020, published 2023)

Legend:
Format in all cases: binding
[1] = target: T1, ERRγ_179 peptide/14-3-3 (Homo sapiens, UniProt P61981); experiment: Selectivity screening FA, ERRγ_179 peptide; conditions: 100 μM fragment
T1 construct: the full length 14-3-3γ was dialysis against 25 mM HEPES pH 7.5; made in house; host or cells: E. coli BL21(DE3), pPROEX HTb
Text: (§1) Selectivity screening of covalent fragments. Drugging the hub protein 14-3-3 raises the challenge of selectivity. We hypothesized that the high level of cooperative behavior for 14-3-3/Pin1_72/28 complex is a function of the unique functionality and topology of the interface, specifically the +1 and +3 amino acid of Pin1_72 with the covalent fragment. We further rationalized that this cooperativity would likely translate to high selectivity. To test this hypothesis, fragments 13, 27 and 28 were screened at a single fragment concentration (100 μM) against a panel of 13 peptides as diverse representatives of 14-3-3 client proteins, differing in size and hydrophobicity of the +1 amino acid (FIG. 22A).
(§2) Fluorescence Anisotropy (FA) Assays.

[2] = target: T2, CFTRpS753/14-3-3 (Homo sapiens, UniProt P61981); experiment: Selectivity screening FA, CFTRpS753 peptide; conditions: 100 μM fragment
T2 construct: the full length 14-3-3γ was dialysis against 25 mM HEPES pH 7.5; made in house; host or cells: E. coli BL21(DE3), pPROEX HTb
T2 sequence (P13569 747-774 partner limits assumed, one chain of several): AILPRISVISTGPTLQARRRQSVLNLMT
Procedure: (§3) Selectivity screening of covalent fragments. Drugging the hub protein 14-3-3 raises the challenge of selectivity.
(§4) This was investigated by comparing the effect of 13, 27 and 28 on 14-3-3 interaction partners with a leucine (Abl1pT735), isoleucine (p65pS45), or valine (CFTRpS753) at the +1 position.
(§5) Fluorescence Anisotropy (FA) Assays. […] All FA assays were measured in FA buffer (10 mM HEPES pH 7.4, 150 mM NaCl, 0.1% Tween20, 1% BSA) in Corning 384 well plates (black, round bottom, low binding). Plates were incubated overnight prior to anisotropy measurements with the Tecan Infinite 500 plate reader (λexcitation=485 nm, λemission=535 nm).

[3] = target: T3, Mypt1_472 peptide/14-3-3 (Homo sapiens, UniProt P61981); experiment: Selectivity screening FA, Mypt1_472 peptide; conditions: 100 μM fragment
T3 construct: the full length 14-3-3γ was dialysis against 25 mM HEPES pH 7.5; made in house; host or cells: E. coli BL21(DE3), pPROEX HTb
Text: as §1, §2

[4] = target: T4, Raptor/14-3-3γ binary complex (Homo sapiens, UniProt P61981); experiment: Selectivity screening FA, Raptor peptide; conditions: 100 μM fragment
T4 construct: the full length 14-3-3γ was dialysis against 25 mM HEPES pH 7.5; made in house; host or cells: E. coli BL21(DE3), pPROEX HTb
Text: as §1
Following the importance of the tryptophan for complex stabilization of Pin1_72/14-3-3γ with the benzaldehydes, the influence of phenylalanine (AS160) and tyrosine (Raptor) were investigated (FIGS. 22A-22B). […] Unlike Pin1_72, the C-terminus of AS160 engages Phe+1 in intramolecular hydrophobic contacts with Pro+4 and Pro+5. The +1 phenylalanine likely cannot rearrange to allow fragment binding.
as §2

[5] = target: T5, 14-3-3/ERα complex (Homo sapiens, UniProt P61981); experiment: Selectivity screening FA, ERα peptide; conditions: 100 μM fragment
T5 construct: the full length 14-3-3γ was dialysis against 25 mM HEPES pH 7.5; made in house; host or cells: E. coli BL21(DE3), pPROEX HTb
T5 sequence (P61981 1-247): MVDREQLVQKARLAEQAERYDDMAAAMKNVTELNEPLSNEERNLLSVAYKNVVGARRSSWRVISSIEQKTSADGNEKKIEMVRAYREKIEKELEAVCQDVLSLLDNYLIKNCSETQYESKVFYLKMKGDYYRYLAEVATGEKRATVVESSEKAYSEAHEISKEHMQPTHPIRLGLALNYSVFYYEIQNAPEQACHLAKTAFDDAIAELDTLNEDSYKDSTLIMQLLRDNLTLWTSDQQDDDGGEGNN
Text: as §1, §2

[6] = target: T6, 14-3-3/Pin1_72 complex (Homo sapiens, UniProt P61981); experiment: Cooperativity analysis, 14-3-3 titrations at varied constant fragment concentration
T6 construct: the full length 14-3-3γ was dialysis against 25 mM HEPES pH 7.5; made in house; host or cells: E. coli BL21(DE3), pPROEX HTb
Text: Cooperativity in ternary complex formation. In contrast to PPI inhibition, where affinity to one of the protein pockets is the driving force for drug development, design of molecular glues is driven by cooperative ternary complex formation. Both CC50 and SF values are concentration dependent values and might differ based on assay design. […] Cooperative complex formation is often accompanied by structural changes of the interface of a complex which translates to increased stability of the ternary com-plex. In order to assess cooperativity of the ternary complex, fragments 13, 23, 27 and 28 were selected for cooper-activity analysis. The α-factor of the fragments were determined using 14-3-3 titrations in the presence of varied, but constant concentration of fragment in a dose-dependent manner. […] Further, the interval of change in stabilization further describes the systems cooperative behaviour.
However, at higher concentration regimes significant assay interference was observed, probably due to compound aggregation. Fragments 23, 27 and 28 all reached saturation or approached saturation enabling accurate determination of α-factor. […] KD remains constant also at higher concentrations of FC-A, indicating non-specific effects.

[7] = target: T7, B-Raf_729 peptide/14-3-3 (Homo sapiens, UniProt P61981); experiment: Selectivity screening FA, B-Raf_729 peptide; conditions: 100 μM fragment
T7 construct: the full length 14-3-3γ was dialysis against 25 mM HEPES pH 7.5; made in house; host or cells: E. coli BL21(DE3), pPROEX HTb
Text: as §1, §2

[8] = target: T8, TBC1D237 peptide/14-3-3 (Homo sapiens, UniProt P61981); experiment: Selectivity screening FA, TBC1D237 peptide; conditions: 100 μM fragment
T8 construct: the full length 14-3-3γ was dialysis against 25 mM HEPES pH 7.5; made in house; host or cells: E. coli BL21(DE3), pPROEX HTb
Text: as §1, §2

[9] = target: T9, p65pS45/14-3-3 (Homo sapiens, UniProt P61981); experiment: Selectivity screening FA, p65pS45 peptide; conditions: 100 μM fragment
T9 construct: the full length 14-3-3γ was dialysis against 25 mM HEPES pH 7.5; made in house; host or cells: E. coli BL21(DE3), pPROEX HTb
T9 sequence (as listed by the source partner, one chain of several): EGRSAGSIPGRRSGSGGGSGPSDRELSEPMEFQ
Procedure: as §3, §4, §5

[10] = target: T10, Abl1pT735/14-3-3 (Homo sapiens, UniProt P61981); experiment: Selectivity screening FA, Abl1pT735 peptide; conditions: 100 μM fragment
T10 construct: the full length 14-3-3γ was dialysis against 25 mM HEPES pH 7.5; made in house; host or cells: E. coli BL21(DE3), pPROEX HTb
Procedure: as §3, §4, §5

[11] = target: T11, C-Raf peptide/14-3-3 (Homo sapiens, UniProt P61981); experiment: Selectivity screening FA, C-Raf peptide; conditions: 100 μM fragment
T11 construct: the full length 14-3-3γ was dialysis against 25 mM HEPES pH 7.5; made in house; host or cells: E. coli BL21(DE3), pPROEX HTb
Text: as §1, §2

[12] = target: T12, Pin1_72/14-3-3γ (Homo sapiens, UniProt P61981+Q13526); experiment: FA protein titrations in presence of 100 μM fragment, 13 representative 14-3-3/peptide interactions; conditions: 14-3-3γ titrations
T12 construct: the full length 14-3-3γ was dialysis against 25 mM HEPES pH 7.5; made in house; host or cells: E. coli BL21(DE3), pPROEX HTb
Procedure: FIGS. 22A-22F. […] FIG. 22A: Radar plot of the SFs determined by FA protein titrations in presence of 100 μM fragment. […] Right: close-up. FIG. 22B: The SF values determined with 14-3-3γ titrations in presence of 100 μM 13, 27 or 28 in FA assays (n=2). FIG. 22C: Structural overlay of the known 14-3-3 binding epitopes used in this study. FIG. 22D: Overlay of the binding pose of 13, 27 and 28 (line representation) with the AS160 binding epitope (PDB: 7NIX). FIG. 22E: Overlay of crystal structures of 13 (2Fo-Fc map at 1 as mesh) binding to the p65_45 (violet sticks, carton)/14-3-3γ complex (PDB: 7NQP) and the CFTR (cyan sticks, cartoon)/14-3-3 complex (PDB: 5D3F, FC-A hidden for clarity). Hydrophobic contacts between 13 and Ile+1 of p65 and Val+1 of CFTR are indicated by transparent spheres.

[13] = target: T13, 14-3-3/p65 (Homo sapiens, UniProt P61981); experiment: Cooperativity analysis of the 14-3-3/p65/28 complex; conditions: 1 mM compound; saturation not achieved
T13 construct: the full length 14-3-3γ was dialysis against 25 mM HEPES pH 7.5; made in house; host or cells: E. coli BL21(DE3), pPROEX HTb
T13 sequence (as listed by the source partner, one chain of several): as above
Procedure: Finally, we performed a cooperativity analysis of the 14-3-3/p65/28 complex to investigate how these structural observations translate to cooperativity. For the 14-3-3/p65/28 complex, saturation of the system was not achieved at concentration ≤1 mM with SF1 mM=37. […] The cooperative interactions within the 14-3-3/Pin1/28 complex are thus significant driving factors for the selective stabilization.

Structure (SMILES) | stabilization, ERRγ_179 [1] | SF, CFTR [2] | stabilizing activity, CFTRpS753 [2] | stabilization, Mypt1_472 [3] | stabilization of the Raptor/14-3-3γ binary complex [4] | stabilization, ERα [5] | cooperativity factor (α-factor) [6] | stabilization, B-Raf_729 [7] | stabilization, TBC1D237 [8] | stabilizing activity, p65pS45 [9] | stabilizing activity, Abl1pT735 [10] | stabilization, C-Raf [11] | selectivity of stabilization among 13 14-3-3/peptide interactions [12] | SF1 mM [13] | concentration necessary to induce a 2-fold increase in PPI stabilization [6] | stabilization of the Pin1/14-3-3 complex [6]
O=Cc1ccc(-n2ccnc2-c2cc(Br)ccc2F)cc1Br [compound 27, 2-bromo-4-(2-(5-bromo-2-fluorophenyl)-1H-imidazol-1-yl)benzaldehyde] | no significant stabilization | 12.5 | some stabilizing activity | no significant stabilization | 9.5 fold | not responsive to fragment stabilization | approximately 60 | no significant stabilization | no significant stabilization | some stabilizing activity | some stabilizing activity | abolishes any stabilizing effect | – | – | – | –
O=Cc1ccc(-n2ccnc2-c2ccc(F)cc2F)cc1Br [compound 28, 2-bromo-4-(2-(2,4-difluorophenyl)-1H-imidazol-1-yl)benzaldehyde] | no significant stabilization | – | no significant complex stabilization | no significant stabilization | – | not responsive to fragment stabilization | 270 | no significant stabilization | no significant stabilization | no significant complex stabilization | no significant complex stabilization | abolishes any stabilizing effect | selective stabilization of the 14-3-3/Pin1_72 complex | 37 | 1 µM | 270 fold
